From patent US5242946A, “Treating herpes Viral infections” (Bio-Mega, Inc., priority 1988, dated 1993)

Columns and labels:
[1] = biological target: HSV-1 ribonucleotide reductase (Human alphaherpesvirus 1 strain 17, UniProt P08543+P10224); assay: Inhibition of HSV-1 ribonucleotide reductase (reduction of CDP); type: biochemical, herpes simplex virus (type 1), strain F; details: for selective inhibition of the viral ribonucleotide reductase over the cellular ribonucleotide reductase: HSV-1 versus hamster 96-V-2(600) ribonucleotide reductase
Sequence of HSV-1 ribonucleotide reductase (P10224 whole entry): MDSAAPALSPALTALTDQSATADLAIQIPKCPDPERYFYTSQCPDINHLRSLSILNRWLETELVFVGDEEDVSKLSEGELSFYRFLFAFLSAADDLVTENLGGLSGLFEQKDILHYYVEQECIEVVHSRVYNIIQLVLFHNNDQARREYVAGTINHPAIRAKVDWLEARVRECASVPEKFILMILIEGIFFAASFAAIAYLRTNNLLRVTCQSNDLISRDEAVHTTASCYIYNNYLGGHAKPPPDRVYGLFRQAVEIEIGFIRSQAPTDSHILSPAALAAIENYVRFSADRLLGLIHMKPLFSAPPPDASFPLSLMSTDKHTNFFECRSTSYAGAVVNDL
Sequence of HSV-1 ribonucleotide reductase (P08543 whole entry): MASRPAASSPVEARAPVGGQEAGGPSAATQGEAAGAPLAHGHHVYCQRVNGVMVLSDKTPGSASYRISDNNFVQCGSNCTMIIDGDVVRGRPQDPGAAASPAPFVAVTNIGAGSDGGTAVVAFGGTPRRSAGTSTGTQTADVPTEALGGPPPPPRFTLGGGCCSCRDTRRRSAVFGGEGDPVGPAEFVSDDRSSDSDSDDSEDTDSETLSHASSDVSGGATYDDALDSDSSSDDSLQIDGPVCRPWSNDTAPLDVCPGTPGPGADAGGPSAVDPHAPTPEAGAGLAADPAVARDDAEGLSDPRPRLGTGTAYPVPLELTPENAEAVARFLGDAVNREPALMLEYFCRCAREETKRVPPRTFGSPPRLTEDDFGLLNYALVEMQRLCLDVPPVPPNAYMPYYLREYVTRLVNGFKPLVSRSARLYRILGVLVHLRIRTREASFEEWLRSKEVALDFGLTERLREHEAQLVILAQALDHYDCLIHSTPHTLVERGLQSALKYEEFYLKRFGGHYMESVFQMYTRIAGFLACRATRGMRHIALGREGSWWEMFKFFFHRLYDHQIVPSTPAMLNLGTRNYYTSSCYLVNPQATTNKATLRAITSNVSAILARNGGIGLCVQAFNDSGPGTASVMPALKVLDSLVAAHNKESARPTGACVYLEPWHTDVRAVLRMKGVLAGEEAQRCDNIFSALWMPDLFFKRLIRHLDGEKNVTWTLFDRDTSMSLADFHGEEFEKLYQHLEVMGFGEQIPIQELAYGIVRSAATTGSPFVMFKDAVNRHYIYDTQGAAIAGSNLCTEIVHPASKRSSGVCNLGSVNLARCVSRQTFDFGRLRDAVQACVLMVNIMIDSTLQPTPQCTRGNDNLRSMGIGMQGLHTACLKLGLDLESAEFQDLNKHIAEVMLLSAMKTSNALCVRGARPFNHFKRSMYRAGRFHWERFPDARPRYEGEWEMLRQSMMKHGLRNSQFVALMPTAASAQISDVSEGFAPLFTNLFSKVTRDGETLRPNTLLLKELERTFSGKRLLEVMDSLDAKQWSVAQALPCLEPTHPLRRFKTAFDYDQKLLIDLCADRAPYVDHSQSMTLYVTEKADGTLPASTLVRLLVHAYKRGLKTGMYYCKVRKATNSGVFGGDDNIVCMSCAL

[2] = biological target: T1, Hamster 96-V-2(600) ribonucleotide reductase (Cricetulus griseus, UniProt G3I2K8+G3I3B7); assay: Inhibition of hamster 96-V-2(600) ribonucleotide reductase (reduction of CDP); type: biochemical, Chinese hamster; details: partially purified enzyme 40 μg, in the presence of adenosine triphosphate (4 mM) and magnesium chloride (11.5 mM)
T1 construct: overproducing strain; endogenous in cells; host or cells: 96-V-2(600), overproducing strain of a Chinese hamster lung cell line (partially purified)
T1 sequence (G3I3B7 entry or part of it): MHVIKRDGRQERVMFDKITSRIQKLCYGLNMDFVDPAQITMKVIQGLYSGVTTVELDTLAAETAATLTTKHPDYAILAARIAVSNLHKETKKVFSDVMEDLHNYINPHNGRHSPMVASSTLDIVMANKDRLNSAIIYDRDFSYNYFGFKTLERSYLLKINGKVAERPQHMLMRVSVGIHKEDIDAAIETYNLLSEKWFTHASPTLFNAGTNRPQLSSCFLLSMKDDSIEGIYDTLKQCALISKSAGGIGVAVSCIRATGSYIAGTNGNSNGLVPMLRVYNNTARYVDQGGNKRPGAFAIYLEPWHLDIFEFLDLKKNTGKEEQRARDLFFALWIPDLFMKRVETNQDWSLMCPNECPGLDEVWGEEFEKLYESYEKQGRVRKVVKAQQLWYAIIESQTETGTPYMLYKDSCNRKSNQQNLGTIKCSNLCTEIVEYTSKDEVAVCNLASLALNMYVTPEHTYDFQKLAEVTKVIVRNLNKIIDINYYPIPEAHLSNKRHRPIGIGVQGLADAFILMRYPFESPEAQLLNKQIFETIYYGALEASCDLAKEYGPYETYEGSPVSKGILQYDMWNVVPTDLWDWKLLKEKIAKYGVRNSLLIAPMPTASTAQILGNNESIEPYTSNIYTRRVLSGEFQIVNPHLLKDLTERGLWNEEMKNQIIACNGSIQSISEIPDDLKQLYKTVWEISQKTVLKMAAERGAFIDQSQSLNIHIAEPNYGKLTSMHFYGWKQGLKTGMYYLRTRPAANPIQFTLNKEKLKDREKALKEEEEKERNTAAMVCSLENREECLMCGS
T1 sequence (G3I2K8 entry or part of it): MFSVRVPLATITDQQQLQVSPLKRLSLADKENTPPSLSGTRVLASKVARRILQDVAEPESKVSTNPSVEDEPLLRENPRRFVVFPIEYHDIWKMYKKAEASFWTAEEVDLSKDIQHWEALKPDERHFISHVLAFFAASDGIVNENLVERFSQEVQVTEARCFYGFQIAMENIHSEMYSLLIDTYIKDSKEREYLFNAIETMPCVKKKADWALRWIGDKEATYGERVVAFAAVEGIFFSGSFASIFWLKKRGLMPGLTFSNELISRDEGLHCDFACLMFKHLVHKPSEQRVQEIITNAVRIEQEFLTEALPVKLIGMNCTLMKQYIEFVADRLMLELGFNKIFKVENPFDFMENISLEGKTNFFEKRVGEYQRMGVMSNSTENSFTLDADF
Method: Hamster 96-V-2(600) ribonucleotide reductase (partially purified) was obtained from an overproducting strain of a Chinese hamster lung cell line as described by W. H. Lewis and P. R. Scinivasan, Mol. Cell Biol., 3, 1053 (1983).
Samples of the HSV-1 ribonucleotide reductase (65 μg with a specific activity of 26 units per mg) were mixed with increasing concentrations of the test compound, i.e. the naphthalene noted in the title of this example, in a series of tubes. Ribonucleotide reductase activity was assayed by monitoring the reduction of cytidine diphosphate (CDP) as described by Cohen et al., supra. The standard reaction mixture, in a final volume of 60 μl, contained: 50 mM, N-2-hydroxyethylpiperazine-N'-2-ethanesulfonic acid (pH 7.8); 4 mM NaF, 30 mM DL-dithiothreitol (DTT); 1 mM bacitracin, 54 μM CDP and 0.25 μCi of [^3 H]CDP. After 30 minutes of incubation at 37° C., the reaction was stopped by immersing the tube in boiling water for 4 minutes. The precipitate was removed by centrifugation. Nucleotides in the supernatant were converted to nucleosides by enzymatic hydrolysis. The deoxyribonucleosides were subsequently separated from the ribonucleosides by ascending polyethyleneimine-celulose chromatography. […] The results, shown in FIG. 1, are expressed as a percentage of the activity obtained in the controls.

Compound | selective inhibition of the viral ribonucleotide reductase over the cellular ribonucleotide reductase [1] | IC50 ([1]; partially purified enzyme 65 μg, 54 μM CDP, 30 minutes at 37° C., pH 7.8, read-out: IC50, fifty percent reduction of the HSV-1 ribonucleotide reductase activity) [µM] | IC50 [2] [µM]
COc1c(OC)c(OC(C)=O)c2cc(Cl)ccc2c1OC(C)=O [6-Chloro-2,3-dimethoxy-1,4-naphthalenediol diacetate] | selective inhibition | 31 | > 250
COc1c(OC)c(OC(C)=O)c2ccccc2c1OC(C)=O [2,3-dimethoxy-1,4-1,4-naphthalenediol diacetate] | selective inhibition | – | –
COc1ccc2c(OC(C)=O)c(OC)c(OC)c(OC(C)=O)c2c1 [2,3,6-trimetoxy-1,4-naphthalenediol diacetate] | selective inhibition | – | –
